Test results from patent US20240150377A1, “MODULATORS OF CYSTIC FIBROSIS TRANSMEMBRANE CONDUCTANCE REGULATOR” (VERTEX PHARMACEUTICALS INCORPORATED, priority 2020, published 2024).
Where two headings read alike, the source gives them in different places.

Molecular target: CFTR (Homo sapiens, UniProt P13569)
Assay: Membrane potential dye, Enteroid Assay A
Assay type: cell-based
Details: for Ent. A Max Activity: chloride transport as % of triple combination control (Enteroid Assay A); for EC50: human enteroid cells, 18-24 hours, acute 10 μM forskolin and 300 nM ivacaftor, read-out: Ent. A EC50
Method in brief: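 Human intestinal enteroids incubated 18-24 h at 37 °C with test compound, then loaded with 20 μM methyl oxonol (with CaCC inhibitors). Chloride transport triggered in chloride-free buffer with 10 μM forskolin, 100 μM IBMX, 300 nM Compound III; fluorescence read 15 min, expressed as % of a triple-combination corrector/potentiator control.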

Chain of CFTR (P13569 with tags, fused parts or gaps DEL508-508): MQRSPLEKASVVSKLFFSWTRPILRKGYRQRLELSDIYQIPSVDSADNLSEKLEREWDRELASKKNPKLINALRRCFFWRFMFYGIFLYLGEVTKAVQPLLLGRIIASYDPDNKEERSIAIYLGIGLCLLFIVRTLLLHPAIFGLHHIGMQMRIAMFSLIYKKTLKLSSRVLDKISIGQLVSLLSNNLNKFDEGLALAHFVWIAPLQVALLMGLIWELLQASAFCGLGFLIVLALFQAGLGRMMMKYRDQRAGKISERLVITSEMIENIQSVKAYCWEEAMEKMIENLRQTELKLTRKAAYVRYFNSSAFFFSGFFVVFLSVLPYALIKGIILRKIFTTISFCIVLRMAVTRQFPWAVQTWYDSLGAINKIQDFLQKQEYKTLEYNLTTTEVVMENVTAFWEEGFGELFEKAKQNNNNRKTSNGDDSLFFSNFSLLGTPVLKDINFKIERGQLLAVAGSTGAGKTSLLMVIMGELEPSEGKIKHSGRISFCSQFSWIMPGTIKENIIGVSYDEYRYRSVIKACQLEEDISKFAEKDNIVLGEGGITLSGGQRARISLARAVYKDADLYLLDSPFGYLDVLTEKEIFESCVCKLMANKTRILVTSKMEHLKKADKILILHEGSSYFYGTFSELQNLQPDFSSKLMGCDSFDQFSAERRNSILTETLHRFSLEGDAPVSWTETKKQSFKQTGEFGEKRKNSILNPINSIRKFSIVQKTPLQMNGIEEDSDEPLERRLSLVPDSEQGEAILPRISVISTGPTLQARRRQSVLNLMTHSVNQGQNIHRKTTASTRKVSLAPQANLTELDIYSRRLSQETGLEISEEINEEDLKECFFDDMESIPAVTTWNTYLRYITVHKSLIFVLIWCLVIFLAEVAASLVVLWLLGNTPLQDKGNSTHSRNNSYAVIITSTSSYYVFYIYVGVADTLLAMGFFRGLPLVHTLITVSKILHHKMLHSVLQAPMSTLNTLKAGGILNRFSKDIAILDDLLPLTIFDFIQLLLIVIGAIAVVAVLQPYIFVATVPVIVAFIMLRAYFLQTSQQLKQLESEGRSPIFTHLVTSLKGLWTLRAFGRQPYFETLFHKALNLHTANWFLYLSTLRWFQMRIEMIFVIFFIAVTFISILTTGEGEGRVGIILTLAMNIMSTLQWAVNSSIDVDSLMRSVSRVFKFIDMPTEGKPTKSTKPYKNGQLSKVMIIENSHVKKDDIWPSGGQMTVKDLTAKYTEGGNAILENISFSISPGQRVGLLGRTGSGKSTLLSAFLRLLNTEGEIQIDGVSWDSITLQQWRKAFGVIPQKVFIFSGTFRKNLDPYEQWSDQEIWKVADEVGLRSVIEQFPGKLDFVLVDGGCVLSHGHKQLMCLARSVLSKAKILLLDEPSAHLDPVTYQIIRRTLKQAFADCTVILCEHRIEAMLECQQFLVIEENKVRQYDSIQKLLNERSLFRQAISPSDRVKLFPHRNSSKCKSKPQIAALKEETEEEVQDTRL

| SMILES | Ent. A Max Activity (Table 6) | EC50 (Table 6) [µM] | Ent. A Max Activity (Table 7) | EC50 (Table 7) [µM] |
| --- | --- | --- | --- | --- |
| Cc1cccc(C)c1-c1cc2nc(n1)NS(=O)(=O)c1cccc(c1)C(=O)N(CCC(C)C)C(CCC1(C(F)(F)F)CC1)CO2 (centres unmarked) [Compound 688] | +++ (+++ is >60%) | < 1 |  |  |
| Cc1cccc(C)c1-c1cc2nc(n1)NS(=O)(=O)c1cccc(c1)C(=O)N(Cc1ccccc1)C(CCC1(C(F)(F)F)CC1)CO2 (centres unmarked) [Compound 689] | +++ (+++ is >60%) | < 1 |  |  |
| Cc1cccc(C)c1-c1cc2nc(n1)NS(=O)(=O)c1cccc(c1)C(=O)N(CCC(C)C)[C@H](CCC1(C(F)(F)F)CC1)CO2 [Compound 851] | + (+ is <30%) |  |  |  |
| Cc1cccc(C)c1-c1cc2nc(n1)NS(=O)(=O)c1cccc(c1)C(=O)N(Cc1ccccc1)[C@@H](CCC1(C(F)(F)F)CC1)CO2 [Compound 852] | ++ (++ is 30-60%) | < 1 |  |  |
| Cc1cccc(C)c1-c1cc2nc(n1)NS(=O)(=O)c1cccc(c1)C(=O)N(Cc1ccccc1)[C@H](CCC1(C(F)(F)F)CC1)CO2 [Compound 853] | ++ (++ is 30-60%) | < 1 |  |  |
| Cc1cccc(C)c1-c1cc2nc(n1)NS(=O)(=O)c1cccc(c1)C(=O)N(Cc1ccc(N3CCN(C)CC3)nc1)[C@H](CC(C)C)CO2 [Compound 854] | +++ (+++ is >60%) | < 1 |  |  |
| Cc1cccc(C)c1-c1cc2nc(n1)NS(=O)(=O)c1cccc(c1)C(=O)N(Cc1ccn(C)n1)[C@H](CC(C)C)CO2 [Compound 855] | +++ (+++ is >60%) | < 1 |  |  |
| Cc1cccc(C)c1-c1cc2nc(n1)NS(=O)(=O)c1cccc(c1)C(=O)N(Cc1ccc(N3CCN(C)CC3)cc1)[C@H](CC(C)C)CO2 [Compound 856] | +++ (+++ is >60%) | < 1 |  |  |
| CNc1ccc(CN2C(=O)c3cccc(c3)S(=O)(=O)Nc3nc(cc(-c4c(C)cccc4C)n3)OC[C@H]2CC(C)C)cn1 [Compound 857] | +++ (+++ is >60%) | < 1 |  |  |
| Cc1cccc(C)c1-c1cc2nc(n1)NS(=O)(=O)c1cccc(c1)C(=O)N(Cc1ccc(N3CCCC3)cc1)[C@H](CC(C)C)CO2 [Compound 858] | +++ (+++ is >60%) | < 1 |  |  |
| Cc1cccc(C)c1-c1cc2nc(n1)NS(=O)(=O)c1cccc(c1)C(=O)N(Cc1cccc(C#N)c1)[C@H](CC(C)C)CO2 [Compound 859] | +++ (+++ is >60%) | < 1 |  |  |
| Cc1cccc(C)c1-c1cc2nc(n1)NS(=O)(=O)c1cccc(c1)C(=O)N(Cc1ccn[nH]1)[C@H](CC(C)C)CO2 [Compound 860] | +++ (+++ is >60%) | < 1 |  |  |
| Cc1cccc(C)c1-c1cc2nc(n1)NS(=O)(=O)c1cccc(c1)C(=O)N(Cc1ccccc1C#N)[C@H](CC(C)C)CO2 [Compound 861] | ++ (++ is 30-60%) | 1 to 3 |  |  |
| Cc1cccc(C)c1-c1cc2nc(n1)NS(=O)(=O)c1cccc(c1)C(=O)N(Cc1ccccc1)[C@H](CC(C)C)CO2 [Compound 862] | +++ (+++ is >60%) | < 1 |  |  |
| Cc1cccc(C)c1-c1cc2nc(n1)NS(=O)(=O)c1cccc(c1)C(=O)N(CC(C)C)C[C@H](Cc1ccccc1)O2 [Compound 863] | +++ (+++ is >60%) | < 1 |  |  |
| Cc1cccc(C)c1-c1cc2nc(n1)NS(=O)(=O)c1cccc(c1)C(=O)N(CC(C)C)C[C@H](c1ccccc1)O2 [Compound 864] | ++ (++ is 30-60%) | < 1 |  |  |
| CCN(CCO)c1ccc(CN2C(=O)c3cccc(c3)S(=O)(=O)Nc3nc(cc(-c4c(C)cccc4C)n3)OC[C@H]2CC(C)C)cn1 [Compound 935] |  |  | +++ (+++ is >60%) | < 1 |
| Cc1cccc(C)c1-c1cc2nc(n1)NS(=O)(=O)c1cccc(c1)C(=O)N(Cc1ccc(N3CCC4(CCC4)CC3)nc1)[C@H](CC(C)C)CO2 [Compound 936] |  |  | +++ (+++ is >60%) | < 1 |
| Cc1cccc(C)c1-c1cc2nc(n1)NS(=O)(=O)c1cccc(c1)C(=O)N(Cc1ccc(N3CCC(F)(F)CC3)nc1)[C@H](CC(C)C)CO2 [Compound 937] |  |  | +++ (+++ is >60%) | < 1 |
| Cc1cccc(C)c1-c1cc2nc(n1)NS(=O)(=O)c1cccc(c1)C(=O)N(Cc1ccc(N3CCC(C)(C#N)CC3)nc1)[C@H](CC(C)C)CO2 [Compound 938] |  |  | +++ (+++ is >60%) | < 1 |
| Cc1cccc(C)c1-c1cc2nc(n1)NS(=O)(=O)c1cccc(c1)C(=O)N(Cc1ccc(N3CCC(C)(O)CC3)nc1)[C@H](CC(C)C)CO2 [Compound 939] |  |  | +++ (+++ is >60%) | < 1 |
| Cc1cccc(C)c1-c1cc2nc(n1)NS(=O)(=O)c1cccc(c1)C(=O)N(Cc1ccc(N3CCC(C)(C)CC3)nc1)[C@H](CC(C)C)CO2 [Compound 940] |  |  | +++ (+++ is >60%) | < 1 |

| SMILES | Ent. A Max Activity (Table 6) | EC50 (Table 6) [µM] | Ent. A Max Activity (Table 7) | EC50 (Table 7) [µM] |
| --- | --- | --- | --- | --- |
| Cc1cccc(C)c1-c1cc2nc(n1)NS(=O)(=O)c1cccc(c1)C(=O)N(Cc1ccc(N3CCC(C(C)(C)C)CC3)nc1)[C@H](CC(C)C)CO2 [Compound 941] |  |  | +++ (+++ is >60%) | < 1 |
| Cc1cccc(C)c1-c1cc2nc(n1)NS(=O)(=O)c1cccc(c1)C(=O)N(Cc1ccc(OCCN(C)C)nc1)[C@H](CC(C)C)CO2 [Compound 942] |  |  | +++ (+++ is >60%) | < 1 |
| Cc1cccc(C)c1-c1cc2nc(n1)NS(=O)(=O)c1cccc(c1)C(=O)N(Cc1ccc(N(C)CCN(C)C)nc1)[C@H](CC(C)C)CO2 [Compound 943] |  |  | +++ (+++ is >60%) | < 1 |
| Cc1cccc(C)c1-c1cc2nc(n1)NS(=O)(=O)c1cccc(c1)C(=O)N(Cc1ccc(NCCN(C)C)nc1)[C@H](CC(C)C)CO2 [Compound 944] |  |  | +++ (+++ is >60%) | < 1 |
| Cc1cccc(C)c1-c1cc2nc(n1)NS(=O)(=O)c1cccc(c1)C(=O)N(Cc1ccc(N3CCC(N(C)C)CC3)nc1)[C@H](CC(C)C)CO2 [Compound 945] |  |  | +++ (+++ is >60%) | < 1 |
| Cc1cccc(C)c1-c1cc2nc(n1)NS(=O)(=O)c1cccc(c1)C(=O)N(Cc1ccc(NCCO)nc1)[C@H](CC(C)C)CO2 [Compound 946] |  |  | +++ (+++ is >60%) | < 1 |
| Cc1cccc(C)c1-c1cc2nc(n1)NS(=O)(=O)c1cccc(c1)C(=O)N(Cc1ccc(NC[C@@H](O)CO)nc1)[C@H](CC(C)C)CO2 [Compound 947] |  |  | +++ (+++ is >60%) | < 1 |
| CC[C@H](O)CNc1ccc(CN2C(=O)c3cccc(c3)S(=O)(=O)Nc3nc(cc(-c4c(C)cccc4C)n3)OC[C@H]2CC(C)C)cn1 [Compound 948] |  |  | +++ (+++ is >60%) | 1 to 3 |
| Cc1cccc(C)c1-c1cc2nc(n1)NS(=O)(=O)c1cccc(c1)C(=O)N(Cc1ccc(N(C)C)nc1)[C@H](CC(C)C)CO2 [Compound 949] |  |  | +++ (+++ is >60%) | < 1 |
| Cc1cccc(C)c1-c1cc2nc(n1)NS(=O)(=O)c1cccc(c1)C(=O)N(Cc1ccc(N3CCC3)nc1)[C@H](CC(C)C)CO2 [Compound 950] |  |  | +++ (+++ is >60%) | < 1 |
| Cc1cccc(C)c1-c1cc2nc(n1)NS(=O)(=O)c1cccc(c1)C(=O)N(Cc1ccc(N3C[C@@H](O)[C@@H](O)C3)nc1)[C@H](CC(C)C)CO2 [Compound 953] |  |  | +++ (+++ is >60%) | < 1 |
| Cc1cccc(C)c1-c1cc2nc(n1)NS(=O)(=O)c1cccc(c1)C(=O)N(Cc1ccc(N3CC[C@@H](O)C3)nc1)[C@H](CC(C)C)CO2 [Compound 955] |  |  | +++ (+++ is >60%) | < 1 |
| Cc1cccc(C)c1-c1cc2nc(n1)NS(=O)(=O)c1cccc(c1)C(=O)N(Cc1ccc(N3CCC(CO)CC3)nc1)[C@H](CC(C)C)CO2 [Compound 956] |  |  | +++ (+++ is >60%) | < 1 |
| Cc1cccc(C)c1-c1cc2nc(n1)NS(=O)(=O)c1cccc(c1)C(=O)N(Cc1ccc(N3CC[C@@H](C)C3)nc1)[C@H](CC(C)C)CO2 [Compound 958] |  |  | +++ (+++ is >60%) | < 1 |
| Cc1cccc(C)c1-c1cc2nc(n1)NS(=O)(=O)c1cccc(c1)C(=O)N(Cc1ccc(N3CCC[C@@H]3C)nc1)[C@H](CC(C)C)CO2 [Compound 960] |  |  | +++ (+++ is >60%) | < 1 |
| Cc1cccc(C)c1-c1cc2nc(n1)NS(=O)(=O)c1cccc(c1)C(=O)N(Cc1ccc(N3CCCC3)nc1)[C@H](CC(C)C)CO2 [Compound 961] |  |  | +++ (+++ is >60%) | < 1 |
| Cc1cccc(C)c1-c1cc2nc(n1)NS(=O)(=O)c1cccc(c1)C(=O)N(Cc1ccc(N3CCC[C@H](O)C3)nc1)[C@H](CC(C)C)CO2 [Compound 962] |  |  | +++ (+++ is >60%) | < 1 |
| Cc1cccc(C)c1-c1cc2nc(n1)NS(=O)(=O)c1cccc(c1)C(=O)N(Cc1ccc(N3CCCC(O)C3)nc1)[C@H](CC(C)C)CO2 (some centres unmarked) [Compound 963] |  |  | +++ (+++ is >60%) | < 1 |
| Cc1cccc(C)c1-c1cc2nc(n1)NS(=O)(=O)c1cccc(c1)C(=O)N(Cc1ccc(N3CCCC(C)C3)nc1)[C@H](CC(C)C)CO2 (some centres unmarked) [Compound 964] |  |  | +++ (+++ is >60%) | < 1 |
| Cc1cccc(C)c1-c1cc2nc(n1)NS(=O)(=O)c1cccc(c1)C(=O)N(Cc1ccc(N3CCC4(CC3)COC4)nc1)[C@H](CC(C)C)CO2 [Compound 965] |  |  | +++ (+++ is >60%) | < 1 |
| Cc1cccc(C)c1-c1cc2nc(n1)NS(=O)(=O)c1cccc(c1)C(=O)N(Cc1ccc(N3CCC(O)CC3)nc1)[C@H](CC(C)C)CO2 [Compound 966] |  |  | +++ (+++ is >60%) | < 1 |
| Cc1cccc(C)c1-c1cc2nc(n1)NS(=O)(=O)c1cccc(c1)C(=O)N(Cc1ccc(C3=CCN(C)CC3)nc1)[C@H](CC(C)C)CO2 [Compound 967] |  |  |  | < 1 |
